Each structure is given as a SMILES string.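 Briefly, cells in 96-well plates were exposed to five compound concentrations for 48 h, and endpoints were estimated by linear interpolation. GI50: concentration for 50% inhibition of growth. TGI denotes the concentration required for complete inhibition of growth.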

What is called TGI is the concentration at which net growth stops. High values mean less potent growth arrest, low ones more potent growth arrest. Usually GI50 stands for the concentration at which growth is held to half of that of the control.

Among the test systems are A498 renal; CCRF-CEM leukemia; MDA-N; MOLT-4 leukemia; NCI-H522 lung; NCI/ADR-RES ovarian; OVCAR-3 ovarian; RPMI-8226 leukemia; SK-OV-3 ovarian; SNB-75 CNS; UO-31 renal.
Assay in all cases: DTP human tumour cell line panel, 48 h

Regarding `COC(=O)c1ccc2n1C1CC3CC(CC2C3)C1`, the total growth inhibition concentration (TGI) with A498 renal, in the test with CCRF-CEM leukemia, with MDA-N, in the test with MOLT-4 leukemia, in the test with NCI-H522 lung and in the test on NCI/ADR-RES ovarian was above 100 µM in each case. The TGI with OVCAR-3 ovarian, with RPMI-8226 leukemia, in the test on SK-OV-3 ovarian, in the test on SNB-75 CNS and in the test with UO-31 renal was above 100 µM throughout.
Turning to `O=C(O)c1c(-c2c3ccc(=O)cc-3oc3cc(O)ccc23)cc2ccccc2c1-c1ccccc1`, the TGI is above 100 µM in the test with A498 renal; above 67.3 µM in the test with CCRF-CEM leukemia; above 100 µM with MDA-N; 8.37 µM with MOLT-4 leukemia; above 100 µM with NCI-H522 lung; above 100 µM with NCI/ADR-RES ovarian. The total growth inhibition concentration (TGI) in the test with OVCAR-3 ovarian, in the test with RPMI-8226 leukemia, with SK-OV-3 ovarian, with SNB-75 CNS and in the test on UO-31 renal was above 100 µM in each case.
For `COC(=O)C1OC(O[C@H]2CC[C@]3(C)[C@H]4CC=C5[C@@H]6CC(C)(C)CC[C@]6(C(=O)OC)[C@H](O)C[C@@]5(C)[C@]4(C)CC[C@H]3C2(C)C)C(O)C(O)C1O` (stereo partly specified), the concentration for total growth inhibition (TGI) worked out at 26.1 µM in the test on A498 renal; 21.4 µM in the test with CCRF-CEM leukemia; 24.9 µM in the test with MDA-N; 25.2 µM with MOLT-4 leukemia; 3.06 µM in the test with NCI-H522 lung; 26.3 µM in the test with NCI/ADR-RES ovarian. The TGI with OVCAR-3 ovarian was found to be 22.1 µM; in the test on RPMI-8226 leukemia, 27.4 µM; in the test on SK-OV-3 ovarian it was 28.2 µM; in the test with SNB-75 CNS, 28.1 µM; in the test with UO-31 renal it was 26.9 µM.
`C=C(C)CCC1CCCCC(CN(C)C)C1=O` (stereo unspecified): the total growth inhibition concentration (TGI) in the test on A498 renal is above 100 µM; with CCRF-CEM leukemia, above 100 µM; with MDA-N, above 100 µM; in the test on MOLT-4 leukemia, above 100 µM; in the test on NCI-H522 lung it was 27.2 µM; with NCI/ADR-RES ovarian, above 100 µM. Further, the TGI in the test with OVCAR-3 ovarian, in the test with RPMI-8226 leukemia, in the test with SK-OV-3 ovarian, with SNB-75 CNS and in the test on UO-31 renal was above 100 µM in each case.
In the case of `Cc1cccc2sc(NC(=O)c3cc([N+](=O)[O-])ccc3Cl)nc12`, the TGI with A498 renal is above 100 µM; with CCRF-CEM leukemia, 2.76 µM; in the test with MDA-N it was 3.69 µM; in the test on MOLT-4 leukemia, above 100 µM; with NCI-H522 lung it was 4.1 µM; in the test on NCI/ADR-RES ovarian, above 24.2 µM. For the same compound, the concentration for total growth inhibition (TGI) was 17.4 µM in the test on OVCAR-3 ovarian; above 100 µM in the test on RPMI-8226 leukemia; above 100 µM in the test on SK-OV-3 ovarian; above 21.1 µM in the test on SNB-75 CNS; 10.4 µM in the test on UO-31 renal.
Regarding `COC(=O)[C@H]1[C@H](C(=O)OC)[C@@H](C)c2c(ccc3c2[nH]c2ccccc23)[C@@H]1C`, the TGI in the test with A498 renal was above 100 µM; in the test on CCRF-CEM leukemia, above 100 µM; in the test with MDA-N it was above 100 µM; in the test on MOLT-4 leukemia it was 6.7 µM; with NCI-H522 lung, above 100 µM; with NCI/ADR-RES ovarian, above 100 µM. The total growth inhibition concentration (TGI) with OVCAR-3 ovarian was above 100 µM; in the test with RPMI-8226 leukemia, above 100 µM; with SK-OV-3 ovarian, above 100 µM; in the test on SNB-75 CNS, 68.7 µM; in the test on UO-31 renal it was above 100 µM.
Turning to `N#CC1C(=O)Nc2sc(C(=O)c3ccc(Br)cc3)c(N)c2C12CCCCC2` (stereo unspecified), the concentration for total growth inhibition (TGI) in the test on A498 renal is 63.6 µM; in the test on CCRF-CEM leukemia, 80.3 µM; with MDA-N, 55.4 µM; in the test with MOLT-4 leukemia, above 100 µM; with NCI-H522 lung it was 78.8 µM; with NCI/ADR-RES ovarian it was above 100 µM. The TGI is 52.7 µM with OVCAR-3 ovarian; above 100 µM with RPMI-8226 leukemia; above 100 µM in the test with SK-OV-3 ovarian; above 100 µM in the test with SNB-75 CNS; above 100 µM with UO-31 renal.
As to `C=CCN1C(=O)/C(=C/c2ccc(C)cc2)N=C1SC/C=C/C`, the TGI is 84.9 µM in the test with A498 renal; above 100 µM in the test with CCRF-CEM leukemia; above 100 µM with MDA-N; 37.8 µM with MOLT-4 leukemia; above 100 µM in the test on NCI-H522 lung; above 100 µM in the test with NCI/ADR-RES ovarian. Further, the total growth inhibition concentration (TGI) in the test with OVCAR-3 ovarian was above 100 µM; in the test on RPMI-8226 leukemia it was 36.6 µM; in the test on SK-OV-3 ovarian, above 100 µM; with SNB-75 CNS, 70.1 µM; in the test with UO-31 renal, above 100 µM.
With `Cn1c(C(C#N)c2cc(Cl)ncn2)nc2ccccc21` (stereo unspecified), the TGI in the test with A498 renal, in the test on MDA-N, with MOLT-4 leukemia, in the test on NCI-H522 lung, in the test on NCI/ADR-RES ovarian and in the test with OVCAR-3 ovarian was above 100 µM each time. Also, the TGI in the test with RPMI-8226 leukemia, with SK-OV-3 ovarian, in the test on SNB-75 CNS and in the test with UO-31 renal was above 100 µM throughout.
As to `Cc1ccc(S(=O)(=O)N2CCSCCSCCN(S(=O)(=O)c3ccc(C)cc3)CCN(S(=O)(=O)c3ccc(C)cc3)CC2)cc1`, the TGI in the test on A498 renal, with CCRF-CEM leukemia, with MDA-N, with MOLT-4 leukemia, in the test with NCI-H522 lung and in the test with NCI/ADR-RES ovarian was above 100 µM throughout. Moreover, the concentration for total growth inhibition (TGI) with OVCAR-3 ovarian, in the test with RPMI-8226 leukemia, with SK-OV-3 ovarian and in the test on UO-31 renal was above 100 µM in each case.
Regarding `O=C(CCCCCCCCC(=O)NN1C(=O)/C(=C\c2ccc(O)c(O)c2)SC1c1c(O)ccc2ccccc12)NN1C(=O)C(=Cc2ccc(O)c(O)c2)SC1c1c(O)ccc2ccccc12` (stereo unspecified), the TGI in the test on A498 renal was 75.9 µM; in the test on CCRF-CEM leukemia, 6.32 µM; in the test with MDA-N, above 100 µM; in the test on MOLT-4 leukemia it was above 29.8 µM; in the test with NCI-H522 lung it was 30.7 µM; in the test on NCI/ADR-RES ovarian, above 100 µM. Also, the TGI in the test with OVCAR-3 ovarian was above 32.9 µM; in the test with RPMI-8226 leukemia, 21.1 µM; in the test with SK-OV-3 ovarian it was above 86.8 µM; in the test with SNB-75 CNS, above 100 µM; in the test on UO-31 renal, 26.8 µM.
Take `Cc1cc2c(cc1O)CC[C@@H]1[C@@H]2CC[C@]2(C)[C@@H](O)CC[C@@H]12`: the TGI in the test on A498 renal stood at 37.9 µM; in the test on CCRF-CEM leukemia, 27.4 µM; in the test with MDA-N, 4.39 µM; in the test on MOLT-4 leukemia, 17.7 µM; in the test on NCI-H522 lung it was 23.4 µM; in the test on NCI/ADR-RES ovarian it was 27.2 µM. The total growth inhibition concentration (TGI) in the test on OVCAR-3 ovarian was determined as 22.1 µM; in the test with RPMI-8226 leukemia it was 19.2 µM; in the test with SK-OV-3 ovarian, 34.1 µM; with SNB-75 CNS it was 23.9 µM; with UO-31 renal, 37.6 µM. For the same compound, the GI50 in the test on OVCAR-3 ovarian is 9.14 µM.

Values taken from PubChem BioAssay (NCI).
